What was measured:
actinic keratosis [1] = test: Part 1 dose escalation trial, once daily for two consecutive days, face/chest, actinic keratosis; format: in vivo, human subjects
Text: Local skin reactions (LSRs) occur sometimes in the treated area. Often LSRs are quantified by a scale evaluating the following types of skin reactions: erythema, flaking/scaling, crusting, swelling, vasiculation/postulation, and erosion/ulceration which are categorized into categories 0-4 depending on the severity of the reactions.
In the trial pre-defined grades of LSRs will constitute Dose Limiting Toxicity.
Dose Limiting toxicity (DLT) is defined one or more of the following LSRs • crusting Grade 4 • Erosion/ulceration Grade 4 • vesiculation/postulation Grade 4 or
Two or more of the following five LSRs: • Erythema Grade 4 • Crusting Grade 3 • Swelling grade 4 • Erosion/ulceration Grade 3 • vesiculation/postulation Grade 3 or • other clinically relevant signs or symptoms observed, which the Investigator judges to be counted as a DLT.
Maximum tolerated dose (MTD) is declared as dose level at which less than 4 subjects out of experience a DLT of cohort of 12 subjects.
Part 1 was a dose escalation study conducted with a once daily application of trial medication for two consecutive days and continued until the MTD was identified.
Dose escalation proceeded if the safety and tolerability data of the subject up to day 8 was reviewed and considered satisfactory. The treatment consisted of once daily treatment for 2 consecutive days. Up to 5 different doses may be investigated in cohorts of 1 subject. The number of subjects in each cohort depended on the number of observed DLTs. However, the MTD was always be confirmed in a cohort of 12 subjects.
To be included in the trial, Part 1, the subjects must be at least 18 years of age.
Subjects who qualify for Part 1 of the trial must have 5 to 20 actinic keratosis on the face or chest. To be included in the trial part 2 the subjects must have 5-20 clinically typical, visible and discrete actinic keratosis on the face or chest
Part 1: Trial medication, ingenol 3-(3,5-diethylisoxazole-4-carboxylate) gel, will be applied to the treatment area once daily for two consecutive days until the maximum tolerated dose has been reached for each formulation. Up to five different doses of active compound in gel may be investigated in cohorts 12 subjects. Predefined grades of Local Skin Responses (LSRs) will constitute dose limiting toxicity (DLT). The maximum tolerated dose is defined as the highest dose level at which less than 4 out of 12 subjects experience a Dose limiting toxicity.
The doses will be administered in an escalating manner following review of safety and tolerability data performed by the dose escalation committee. Evaluation of the safety and tolerability data will be performed after Visit 5/day 8. Then subjects will be followed for 8 weeks after first application of investigational product.

actinic keratosis [2] = test: Part 2 open-label trial, 0.018% gel once daily for three consecutive days, full face or 250 cm^2 chest, actinic keratosis; format: in vivo, human subjects; conditions: 3 consecutive days
Method: Part 2 is a study of the efficacy of the 0.018% dose identified in part 1 in a three day regimen.
In contrast to other similar trials conducted, this trial allows inclusion in the trial of hypertrophic and hyperkeratotic lesion, and separately, the efficacy for these lesions are evaluated.
The outcome for Part 2 is safety and efficacy in a once daily application for three consecutive days on the face/chest. The efficacy in treating of the AK will be measured as reduction in AK count in the treated area of lesions which are not considered hyperkeratotic/hypertrophic.
The reduction in AK count will be performed at week 4 and 8 no matter the type of lesion. Also complete clearance of AKs in the treated area which are not considered hyperkeratotic/hypertrophic at week 8 will be measured.
The trial medication applied is preferably a gel. The gel formulation comprises: isopropyl alcohol, hydroxyethyl cellulose, benzyl alcohol, citric acid monohydrate, sodium citrate dehydrate and water and active compound in a 0.018% concentration. For this particular trial, the dosing is two unit dose tubes daily, each containing 0.67 g.
To qualify for part 2 of the trial, the subjects must have 5-20 clinically visible and discrete AKs within full face or 250 cm^2 area on the chest. In addition to the requirement of 5-20 clinically typical, visible and discrete AKs within the selected treatment area, subjects may also have visible and discrete hyperkeratotic/hypertrophic lesions in this area. The subjects will be treated with a dose of 0.018% as a once daily three consecutive days treatment and followed for 8 weeks.
The trial consists of an initial part, where 18 subjects will be treated on face/chest. […] As this is a safety trial, it is considered justified to conduct this clinical trial as an open-label, uncontrolled trial. An early safety and tolerability evaluation will be performed following the 3 days treatment. If safety and tolerability is found acceptable by the Early Data Review Committee, and additional 44 subjects will be enrolled in order to expand safety observations and obtain an estimate of treatment efficacy.
The patients are scheduled for 7 visits: • Visit 1: within 21 days prior to day 1 • Visit 2: day 1 (application of trial medication) • Visit 3: day 4 (application of trial medication) • Visit 4: day 8 (±2 day) • Visit 5: week 2 (±2 day) • Visit 6: week 4 (±4 day) • Visit 7: week 8 (±7 day)
LSRs are evaluated at all visits following visit 1.
LSRs are evaluated at all visits following visit 1. AK lesion counts are performed on Visit 2, 6 and 7.
At Baseline (Day 1) and Visit 7 (Week 8), the investigator will make a clinical (visual and tactile) assessment of the extent of photo-damage in the treatment area with respect to 1) fine wrinkling, 2) coarse wrinkling, 3) mottled pigmentation, 4) roughness, 5) sallowness, 6) skin laxity, and 7) telangiectasia. Severity for each of these characteristics will be on a 5-point scale: None (0), Mild (1), Moderate (2), Severe (3), Extreme (4).
At Visit 7 (Week 8) the Investigator will make an overall clinical (visual and tactile) assessment of the subject's photo-damage change from baseline in the treatment area (including an integrated assessment of fine wrinkling, coarse wrinkling, mottled pigmentation, roughness, sallowness, skin laxity, and telangiectasia based on the subject's appearance at the baseline visit).
The scoring will be on a 7-point symmetric scale: Marked improvement (+3), Moderate improvement (+2), Minor improvement (+1), No change (0), Minor worsening (−1), Moderate worsening (−2), Marked worsening (−3).
At Visit 7 (Week 8), the subjects will complete a self-assessment questionnaire evaluating the change in the 1) overall appearance of the skin and 2) overall feel of the skin after treatment. The scoring will be on a 5-point scale: Much worsened, Somewhat worsened, No change, somewhat improved, much improved. […]

dermal tumours = test: in vivo studies in mice, effects on dermal tumours; conditions: compared with ingenol mebutate
Text: The exact mechanism of action of ingenol 3-(3,5-diethylisoxazole-4-carboxylate) continues to be investigated, but it is believed that ingenol 3-(3,5-diethylisoxazole-4-carboxylate) has a dual mechanism of action inducing cell death as well as stimulation of immune response.

[3] = at 0.018% dose, two day regimen

CCc1noc(CC)c1C(=O)O[C@H]1C(C)=C[C@]23C(=O)[C@@H](C=C(CO)[C@@H](O)[C@]12O)[C@H]1[C@@H](C[C@H]3C)C1(C)C [ingenol 3-(3,5-diethylisoxazole-4-carboxylate)]
application site adverse events (actinic keratosis [1]; [3]): minimal | local skin reactions (LSRs) (actinic keratosis [1]; [3]): mild | maximum tolerated dose (MTD) (actinic keratosis [1]; gel, once daily for 2 consecutive days, face/chest, MTD = highest dose with DLT in less than 4 of 12 subjects): 0.018% | tolerability with respect to LSRs and application site reaction (actinic keratosis [1]; selected dose 0.018%, two days dosing regimen): well tolerated | cosmetic outcome of the treatment (actinic keratosis [2]): good | side-effects (actinic keratosis [2]): acceptable | subjects reporting improvement in appearance and feel (actinic keratosis [2]; cosmetic outcome self-assessment): more than 90% | patients with photo damage improved (actinic keratosis [2]; investigator assessment, fraction of patients): two-thirds | time at which side-effects maximize (actinic keratosis [2]; rapid decline thereafter): 4 days | complete clearance (actinic keratosis [2]; week 4, 63 patients): 37% | reduction in AK count (actinic keratosis [2]; week 4, 63 patients): 81% | complete clearance (actinic keratosis [2]; week 8 (the same as week 4)): 37% | reduction in AK count (actinic keratosis [2]; week 8 (the same as week 4)): 81% | efficacy in eliminating dermal tumours (dermal tumours): more efficacious than ingenol mebutate
